Values after ≈ are worked out from the molar mass of the structure shown.
Experiments:
Assay in all cases: Antifungal MIC, broth dilution
A. fumigatus ATCC 46645 = type: cell-based; settings: end point 48 hours; for Afm01 MIC50: RPMI 1640 with MOPS; for MIC50: Aspergillus fumigatus, ATCC46645, RPMI 1640 with MOPS, read-out: Afm01 MIC50
C. glabrata ATCC 90030 = type: cell-based; settings: end point 48 hours; for Cg01 MIC50: RPMI 1640 with MOPS; for MIC50: Nakaseomyces glabratus, ATCC90030, RPMI 1640 with MOPS, read-out: Cg01 MIC50
A. niger ATCC 16404 = type: cell-based, Aspergillus niger; settings: end point 48 hours; for An01 MIC50: RPMI 1640 with MOPS; for MIC50: Aspergillus niger, ATCC16404, RPMI 1640 with MOPS, read-out: An01 MIC50
Description: (§1) The compounds of Formula 1 were tested for antifungal activity against Candida albicans, Aspergillus niger and Fusarium proliferatum. In vitro evaluation of antifungal activity was performed by determining the minimum inhibitory concentration (MIC) following standard methods (CLSI: Reference method for broth dilution antifungal susceptibility testing of yeasts; Approved standard, second edition M27-A2, 2002; CLSI: Reference method for broth dilution antifungal susceptibility testing of filamentous fungi; Approved standard M38-A, 2002). Anti-fungal susceptibility testing of these anti-fungal compounds was done by broth dilution method using RPMI 1640 medium with MOPS buffer. Known anti-fungal agents like fluconazole and amphotericin-B were used as positive control. End points were determined after 48 hours visually and by using spectrophotometer wherever necessary. Different dilutions were tried and various sets of experiments performed. The activity parameters are enumerated in Table 5.

C. neoformans ATCC 34664 = type: cell-based; settings: end point 48 hours; for Cn01 MIC50: RPMI 1640 with MOPS; for MIC50: Cryptococcus neoformans, ATCC34664, RPMI 1640 with MOPS, read-out: Cn01 MIC50
[1] = test system: F. proliferatum ATCC 10052; type: cell-based, Fusarium proliferatum; settings: end point 48 hours; for Fp01 MIC50: RPMI 1640 with MOPS; for MIC50: Fusarium proliferatum, ATCC10052, RPMI 1640 with MOPS, read-out: Fp01 MIC50
Description: as §1

C. krusei ATCC 6258 = type: cell-based; settings: end point 48 hours; for Ck01 MIC50: RPMI 1640 with MOPS; for MIC50: Pichia kudriavzevii, ATCC6258, RPMI 1640 with MOPS, read-out: Ck01 MIC50
C. albicans ATCC 24433 = type: cell-based, Candida albicans; settings: end point 48 hours; for Ca01 A: MIC80 / Ca01 B: MIC50: RPMI 1640 with MOPS; for MIC80 / MIC50: Candida albicans, ATCC24433, RPMI 1640 with MOPS; for MIC80: read-out: Ca01 A: MIC80; for MIC50: read-out: Ca01 B: MIC50
Description: as §1

C. tropicalis ATCC 750 = type: cell-based; settings: end point 48 hours; for Ct01 MIC50: RPMI 1640 with MOPS; for MIC50: Candida tropicalis, ATCC750, RPMI 1640 with MOPS, read-out: Ct01 MIC50

Compound	Afm01 MIC50 (A. fumigatus ATCC 46645) [µg/mL]	Cg01 MIC50 (C. glabrata ATCC 90030) [µg/mL]	An01 MIC50 (A. niger ATCC 16404) [µg/mL]	Cn01 MIC50 (C. neoformans ATCC 34664) [µg/mL]	Fp01 MIC50 [1] [µg/mL]	Ck01 MIC50 (C. krusei ATCC 6258) [µg/mL]	Ca01 A: MIC80 (C. albicans ATCC 24433) [µg/mL]	Ca01 B: MIC50 (C. albicans ATCC 24433) [µg/mL]	Ct01 MIC50 (C. tropicalis ATCC 750) [µg/mL]	MIC50 (A. fumigatus ATCC 46645) [µg/mL]	MIC50 (C. glabrata ATCC 90030) [µg/mL]	MIC50 (A. niger ATCC 16404) [µg/mL]	MIC50 (C. neoformans ATCC 34664) [µg/mL]	MIC50 [1] [µg/mL]	MIC50 (C. krusei ATCC 6258) [µg/mL]	MIC80 (C. albicans ATCC 24433) [µg/mL]	MIC50 (C. albicans ATCC 24433) [µg/mL]	MIC50 (C. tropicalis ATCC 750) [µg/mL]
C[C@@H]1[C@H](O)[C@@H](C)/C=C/C=C/C=C/C=C/C=C/C=C/C=C/[C@H](O[C@@H]2O[C@H](C)[C@@H](O)[C@H](N)[C@@H]2O)C[C@@H]2O[C@](O)(C[C@@H](O)C[C@@H](O)[C@H](O)CC[C@@H](O)C[C@@H](O)CC(=O)O[C@H]1C)C[C@H](O)[C@H]2C(=O)O [AMB, amphotericin-B, reference compound]	0.5	0.25	0.25	0.5	2	0.5	0.25	0.25	0.5	–	–	–	–	–	–	–	–	–
COC(COc1ccc(C(=O)/C=C/c2ccc(Cl)cc2Cl)cc1)(Cn1cncn1)c1ccc(F)cc1F (stereo not drawn) [Compound 1A-19, (E)-3-(2,4-dichlorophenyl)-1-(4-(2-(2,4-difluorophenyl)-2-methoxy-3-(1H-1,2,4-triazol-1-yl)propoxy)phenyl)prop-2-en-1-one]	–	–	–	–	–	–	–	–	–	> 4	1 (≈ 1.84 µM)	> 4	> 4	> 4	> 4	> 4	1 (≈ 1.84 µM)	> 4
CCCCCCCCCCCCCCC(=O)/C=C/c1ccc(OCC(O)(Cn2cncn2)c2ccc(F)cc2F)cc1 (stereo not drawn) [Compound 1A-27]	>1	>1	>1	>1	>1	>1	>1	>1	>1	–	–	–	–	–	–	–	–	–
OC(Cn1cncn1)(Cn1cncn1)c1ccc(F)cc1F [FLU, fluconazole]	–	–	–	–	–	–	–	–	–	> 128	1 (≈ 3.27 µM)	> 128	2 (≈ 6.53 µM)	> 128	32 (≈ 104 µM)	1 (≈ 3.27 µM)	0.25 (≈ 0.816 µM)	1 (≈ 3.27 µM)
O=C(/C=C/c1cccs1)c1ccc(OC[C@](O)(Cn2cncn2)c2ccc(F)cc2F)cc1 [R-(−)-1A-13]	–	–	–	–	–	–	–	–	–	> 4	0.03 (≈ 0.0642 µM)	> 4	0.5 (≈ 1.07 µM)	> 4	2 (≈ 4.28 µM)	0.12 (≈ 0.257 µM)	0.03 (≈ 0.0642 µM)	0.12 (≈ 0.257 µM)
Cn1cc(/C=C/C(=O)c2ccc(OCC(O)(Cn3cncn3)c3ccc(F)cc3F)cc2)c2ccccc21 (stereo not drawn) [Compound 1A-16]	–	–	–	–	–	–	–	–	–	> 4	2 (≈ 3.89 µM)	> 4	4 (≈ 7.77 µM)	> 4	> 4	0.5 (≈ 0.972 µM)	0.25 (≈ 0.486 µM)	2 (≈ 3.89 µM)
COc1cc(/C=C/C(=O)c2ccc(OCC(O)(Cn3cncn3)c3ccc(F)cc3F)cc2)cc(OC)c1 (stereo not drawn) [Compound 1A-4]	–	–	–	–	–	–	–	–	–	> 4	2 (≈ 3.83 µM)	> 4	2 (≈ 3.83 µM)	> 4	> 4	1 (≈ 1.92 µM)	0.25 (≈ 0.479 µM)	2 (≈ 3.83 µM)
O=C(/C=C/c1ccc(OCC(O)(Cn2cncn2)c2ccc(F)cc2F)cc1)C1CC1 (stereo not drawn) [Compound 1A-28]	16	0.03	8	2	>16	1	0.06	0.015	0.25	–	–	–	–	–	–	–	–	–
O=C(/C=C/c1ccc(OCC(O)(Cn2cncn2)c2ccc(F)cc2F)cc1)c1ccc(Cl)cc1Cl (stereo not drawn) [Compound 1A-22]	–	–	–	–	–	–	–	–	–	> 4	0.5 (≈ 0.943 µM)	> 4	1 (≈ 1.89 µM)	> 4	2 (≈ 3.77 µM)	0.25 (≈ 0.471 µM)	0.12 (≈ 0.226 µM)	1 (≈ 1.89 µM)
CCCCCCCCOc1ccc(/C=C/C(=O)c2ccc(OCC(O)(Cn3cncn3)c3ccc(F)cc3F)cc2)cc1 (stereo not drawn) [Compound 1A-9]	>2	>2	>2	>2	>2	>2	>2	>2	>2	–	–	–	–	–	–	–	–	–
